Experimental data reported in patent US20230081426A1, “COMPOUNDS AND METHODS FOR KRAS MODULATION AND INDICATIONS THEREFOR” (Plexxikon Inc., priority 2020, published 2023).

Key:
[1] = molecular target: T1, G12C-mutant human KRAS (amino acid residues 1-188) (Homo sapiens, UniProt P01116, G12C); experiment: KRAS Binding Disruption Assay (AlphaScreen; biotinylated KRpep-2d analogue or RAF1-RBD), G12C; conditions: geometric mean, read-out: KRAS GMean IC50 (uM) MUTATION: G12C
T1 construct: G12D or G12C-mutant human KRAS (amino acid residues 1-188) with FLAG tag; made in house; host or cells: E. coli
How it was run: (§1)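 Mutant KRAS (5-20 nM) incubated 1 h at 25° C with test compound and 5-20 nM biotinylated KRpep-2d analogue or RAF1-RBD in 20 mM HEPES pH 7.5, 100 mM NaCl, 5 mM MgCl2, 0.01% Tween-20, 0.01% BSA.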

[2] = molecular target: T2, G12D-mutant human KRAS (amino acid residues 1-188) (Homo sapiens, UniProt P01116, G12D); experiment: KRAS Binding Disruption Assay (AlphaScreen; biotinylated KRpep-2d analogue or RAF1-RBD), G12D; conditions: KRAS G12D; geometric mean; read-out: KRAS GMean IC50 (uM) MUTATION: G12D
T2 construct: G12D or G12C-mutant human KRAS (amino acid residues 1-188) with FLAG tag; made in house; host or cells: E. coli
How it was run: as §1

[3] = molecular target: T3, G12V-mutant human KRAS (amino acid residues 1-188) (Homo sapiens, UniProt P01116, G12V); experiment: KRAS Binding Competition Assay (AlphaScreen; biotinylated KRpep-2d analogue), G12V; conditions: geometric mean, read-out: KRAS GMean IC50 (uM) MUTATION: G12V
T3 construct: G12V-mutant human KRAS (amino acid residues 1-188) with FLAG tag was purified from E. coli; made in house; host or cells: E. coli

IC50 [1]	IC50 [2]	IC50 [3]	Structure (SMILES)
0.0001 to 10 µM	0.0001 to 10 µM	0.0001 to 10 µM	CN1CCC[C@H]1COc1nc(N2CC3COCC(C2)N3)c2cc(Cl)c(-c3cc(O)cc4cccc(Cl)c34)c(F)c2n1 [P-0365, 4-(4-(3-oxa-7,9-diazabicyclo[3.3.1]nonan-7-yl)-6-chloro-8-fluoro-2-(((S)-1-methylpyrrolidin-2-yl)methoxy)quinazolin-7-yl)-5-chloronaphthalen-2-ol]
0.0001 to 10 µM	0.0001 to 10 µM	0.0001 to 10 µM	N#CCC(=O)N1[C@@H]2CC[C@H]1CN(c1nc(OCC34CCCN3CCC4)nc3c(F)c(-c4cc(O)cc5ccccc45)ccc13)C2 [P-0354, 3-((1R,5S)-3-(8-fluoro-7-(3-hydroxynaphthalen-1-yl)-2-((tetrahydro-1H-pyrrolizin-7a(5H)-yl)methoxy)quinazolin-4-yl)-3,8-diazabicyclo[3.2.1]octan-8-yl)-3-oxopropanenitrile]
0.0001 to 10 µM	0.0001 to 10 µM	0.0001 to 10 µM	O=C1NC(=O)[C@H](CC(=O)N2[C@@H]3CC[C@H]2CN(c2nc(OCC45CCCN4CCC5)nc4c(F)c(-c5cc(O)cc6ccccc56)ccc24)C3)N1 [P-0415, (S)-5-(2-((1R,5S)-3-(8-fluoro-7-(3-hydroxynaphthalen-1-yl)-2-((tetrahydro-1H-pyrrolizin-7a(5H)-yl)methoxy)quinazolin-4-yl)-3,8-diazabicyclo[3.2.1]octan-8-yl)-2-oxoethyl)imidazolidine-2,4-dione]
0.0001 to 10 µM	0.0001 to 10 µM	0.0001 to 10 µM	Oc1cc(-c2c(Cl)cc3c(N4C[C@H]5CC[C@@H](C4)N5)nc(OCC45CCCN4CCC5)nc3c2F)c2ccccc2c1 [P-0034, 4-(4-((1R,5S)-3,8-diazabicyclo[3.2.1]octan-3-yl)-6-chloro-8-fluoro-2-((tetrahydro-1H-pyrrolizin-7a(5H)-yl)methoxy)quinazolin-7-yl)naphthalen-2-ol]
10 to 100 µM	0.0001 to 10 µM	10 to 100 µM	CN1CCN(CCC(=O)N2[C@@H]3CC[C@H]2CN(c2nc(OC[C@@H]4CCCN4C)nc4cc(-c5cc(O)cc6ccccc56)ccc24)C3)CC1 [P-0116, 1-((1R,5S)-3-(7-(3-hydroxynaphthalen-1-yl)-2-(((S)-1-methylpyrrolidin-2-yl)methoxy)quinazolin-4-yl)-3,8-diazabicyclo[3.2.1]octan-8-yl)-3-(4-methylpiperazin-1-yl)propan-1-one]
10 to 100 µM	0.0001 to 10 µM	100 to 1000 µM	Oc1cccc(F)c1-c1ccc2c(N3C[C@H]4CC[C@@H](C3)N4)nc(OCC34CCCN3CCC4)nc2c1F [P-0049, 2-(4-((1R,5S)-3,8-diazabicyclo[3.2.1]octan-3-yl)-8-fluoro-2-((tetrahydro-1H-pyrrolizin-7a(5H)-yl)methoxy)quinazolin-7-yl)-3-fluorophenol]
0.0001 to 10 µM	0.0001 to 10 µM	0.0001 to 10 µM	CC1(NC(=O)N2[C@@H]3CC[C@H]2CN(c2nc(OCC45CCCN4CCC5)nc4cc(-c5cc(O)cc6ccccc56)ccc24)C3)CCNC1 (stereo partly drawn) [P-0124, (1R,5S)-3-(7-(3-hydroxynaphthalen-1-yl)-2-((tetrahydro-1H-pyrrolizin-7a(5H)-yl)methoxy)quinazolin-4-yl)-N-(3-methylpyrrolidin-3-yl)-3,8-diazabicyclo[3.2.1]octane-8-carboxamide]
0.0001 to 10 µM	0.0001 to 10 µM	0.0001 to 10 µM	CN1CCC[C@H]1COc1nc(N2C[C@H]3CC[C@@H](C2)N3C(=O)C(N)=O)c2ccc(-c3cc(O)cc4ccccc34)c(F)c2n1 [P-0397, 2-((1R,5S)-3-(8-fluoro-7-(3-hydroxynaphthalen-1-yl)-2-(((S)-1-methylpyrrolidin-2-yl)methoxy)quinazolin-4-yl)-3,8-diazabicyclo[3.2.1]octan-8-yl)-2-oxoacetamide]
0.0001 to 10 µM	0.0001 to 10 µM	0.0001 to 10 µM	CN1CCC[C@H]1COc1nc(N2C[C@H]3CC[C@@H](C2)N3C(N)=O)c2ccc(-c3cc(O)cc4ccccc34)c(F)c2n1 [P-0103, (1R,5S)-3-(8-fluoro-7-(3-hydroxynaphthalen-1-yl)-2-(((S)-1-methylpyrrolidin-2-yl)methoxy)quinazolin-4-yl)-3,8-diazabicyclo[3.2.1]octane-8-carboxamide]
0.0001 to 10 µM	0.0001 to 10 µM	0.0001 to 10 µM	O=C(NCC1CCNC1)N1[C@@H]2CC[C@H]1CN(c1nc(OCC34CCCN3CCC4)nc3cc(-c4cc(O)cc5ccccc45)ccc13)C2 (stereo partly drawn) [P-0127, (1R,5S)-3-(7-(3-hydroxynaphthalen-1-yl)-2-((tetrahydro-1H-pyrrolizin-7a(5H)-yl)methoxy)quinazolin-4-yl)-N-(pyrrolidin-3-ylmethyl)-3,8-diazabicyclo[3.2.1]octane-8-carboxamide]
0.0001 to 10 µM	0.0001 to 10 µM	0.0001 to 10 µM	Oc1cc(-c2ccc3c(N4C[C@H]5CC[C@@H](C4)N5)nc(OCC45CCCN4CCC5)nc3c2F)c2ccccc2c1 [P-0048, 4-(4-((1R,5S)-3,8-diazabicyclo[3.2.1]octan-3-yl)-8-fluoro-2-((tetrahydro-1H-pyrrolizin-7a(5H)-yl)methoxy)quinazolin-7-yl)naphthalen-2-ol]
10 to 100 µM	0.0001 to 10 µM	10 to 100 µM	CN1CCC(Oc2nc(N3C[C@H]4CC[C@@H](C3)N4)c3cc(Cl)c(-c4cc(O)cc5ccccc45)c(F)c3n2)CC1 [P-0032, 4-(4-((1R,5S)-3,8-diazabicyclo[3.2.1]octan-3-yl)-6-chloro-8-fluoro-2-((1-methylpiperidin-4-yl)oxy)quinazolin-7-yl)naphthalen-2-ol]
0.0001 to 10 µM	0.0001 to 10 µM	0.0001 to 10 µM	CN1CCC[C@H]1COc1nc(N2C[C@H]3CC[C@@H](C2)N3C(=O)CCn2cccn2)c2ccc(-c3cc(O)cc4ccccc34)cc2n1 [P-0120, 1-((1R,5S)-3-(7-(3-hydroxynaphthalen-1-yl)-2-(((S)-1-methylpyrrolidin-2-yl)methoxy)quinazolin-4-yl)-3,8-diazabicyclo[3.2.1]octan-8-yl)-3-(1H-pyrazol-1-yl)propan-1-one]
0.0001 to 10 µM	0.0001 to 10 µM	10 to 100 µM	CCCNS(=O)(=O)N1[C@@H]2CC[C@H]1CN(c1nc(OCC34CCCN3CCC4)nc3cc(-c4cc(O)cc5ccccc45)ccc13)C2 [P-0096, (1R,5S)-3-(7-(3-hydroxynaphthalen-1-yl)-2-((tetrahydro-1H-pyrrolizin-7a(5H)-yl)methoxy)quinazolin-4-yl)-N-propyl-3,8-diazabicyclo[3.2.1]octane-8-sulfonamide]
10 to 100 µM	0.0001 to 10 µM	10 to 100 µM	CN1[C@@H]2CC[C@H]1CN(c1nc(OCC34CCCN3CCC4)nc3cc(-c4cc(O)cc5ccccc45)ccc13)C2 [P-0017, 4-(4-((1R,5S)-8-methyl-3,8-diazabicyclo[3.2.1]octan-3-yl)-2-((tetrahydro-1H-pyrrolizin-7a(5H)-yl)methoxy)quinazolin-7-yl)naphthalen-2-ol]
0.0001 to 10 µM	0.0001 to 10 µM	0.0001 to 10 µM	O=C(CO)N1[C@@H]2CC[C@H]1CN(c1nc(OCC34CCCN3CCC4)nc3cc(-c4cc(O)cc5ccccc45)ccc13)C2 [P-0008, 2-hydroxy-1-((1R,5S)-3-(7-(3-hydroxynaphthalen-1-yl)-2-((tetrahydro-1H-pyrrolizin-7a(5H)-yl)methoxy)quinazolin-4-yl)-3,8-diazabicyclo[3.2.1]octan-8-yl)ethan-1-one]
